Structures can show the parent of a compound that is named as a salt.
Tests used:
[1] = molecular target: T1, recombinant human CES1 (Homo sapiens, UniProt P23141); test: Hydrolysis by hCES-1 (HPLC assay); assay type: in vitro ADME; settings: 50 μM test compound, 50 nM CES1, 20° C., pH 7.5
T1 construct: Recombinant human CES1 (Gly18-Glu563, bearing a polyhistidine tag at the C-terminus); polyhistidine (C); purchased Novoprotein, Summit, N.J., USA C450; host or cells: human cells
T1 sequence (P23141 18-563): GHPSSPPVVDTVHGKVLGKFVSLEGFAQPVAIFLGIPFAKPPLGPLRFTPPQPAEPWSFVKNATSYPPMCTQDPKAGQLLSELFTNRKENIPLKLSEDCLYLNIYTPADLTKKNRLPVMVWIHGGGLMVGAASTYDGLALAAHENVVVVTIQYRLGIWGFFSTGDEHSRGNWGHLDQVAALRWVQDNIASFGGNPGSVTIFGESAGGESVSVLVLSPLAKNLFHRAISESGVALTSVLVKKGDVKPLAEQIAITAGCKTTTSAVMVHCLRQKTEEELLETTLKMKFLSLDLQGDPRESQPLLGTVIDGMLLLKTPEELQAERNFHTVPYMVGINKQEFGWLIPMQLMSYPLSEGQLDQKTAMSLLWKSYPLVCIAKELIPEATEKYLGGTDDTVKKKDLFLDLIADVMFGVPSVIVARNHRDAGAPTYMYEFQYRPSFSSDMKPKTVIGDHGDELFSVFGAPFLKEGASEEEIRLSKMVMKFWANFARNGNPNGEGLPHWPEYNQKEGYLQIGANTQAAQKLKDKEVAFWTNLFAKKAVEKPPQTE
Description: Hydrolysis of ESM-containing BET inhibitors by carboxylesterase 1 (CES1) is one aspect of delivering a targeted molecule. Rates of hydrolysis of certain compounds of the invention by recombinant human CES1 were determined using an HPLC assay. Recombinant human CES1 (Gly18-Glu563, bearing a polyhistidine tag at the C-terminus) expressed in human cells and purified to homogeneity was obtained from Novoprotein, Summit, N.J., USA (catalogue number C450). Reactions were run in 384 well plates at 20° C. in a buffer of 50 mM sodium phosphate pH 7.5/100 mM NaCl.
Assays used a fixed concentration of test compound (50 μM) and CES1 (50 nM) and a time course of the reaction was obtained by stopping samples at increasing times by addition of formic acid to lower the pH. Stopped samples were subsequently analysed by HPLC to resolve product acid from unhydrolysed ester, using a 50×2 mm C18 5 μM reversed-phase column (Phenomenex Gemini) at a flow rate of 1 ml/min using a gradient of acetonitrile in water, containing 0.1% formic acid. Chromatography was monitored using absorbance at 300 nm wavelength. The % of product formed was determined using integrated peak areas and used to determine the initial rate of the reaction. The specific activity of the CES1 against each test compound under these conditions (in units of μM/min/μM) was obtained by dividing the initial rate of the reaction by the CES1 concentration.

[2] = molecular target: T2, BRD4 BD2 (Homo sapiens, UniProt O60885, Y97A); test: TR-FRET binding assay, BRD4 BD2 (mutant protein); settings: 10 nM mutated bromodomain protein, Alexa Fluor647 ligand at Kd, read-out: mean pIC50 in the BRD4 BD2 assay (converted)
T2 construct: BRD4 (1-477) (Y97A) and (Y390A); made in house; host or cells: E. coli (pET15b vector)
Description: Biological Data Time Resolved Fluorescence Resonance Energy Transfer (TR-FRET) Assay
Binding was assessed using a time resolved fluorescent resonance energy transfer binding assay. This utilises a 6 His purification tag at the N-terminal of the proteins as an epitope for an anti-6 His antibody labeled with Europium chelate (PerkinElmer AD0111) allowing binding of the Europium to the proteins which acts as the donor fluorophore.
In the absence of a competing compound, excitation of the Europium causes the donor to emit at λ618 nm which excites the Alexa labelled bromodomain binding compound leading to an increased energy transfer that is measurable at λ647 nM. In the presence of a sufficient concentration of a compound that can bind these proteins, the interaction is disrupted leading to a quantifiable drop in fluorescent resonance energy transfer.
The binding of compounds of the invention to Bromodomains BRD2, BRD3, BRD4 and BRDT was assessed using mutated proteins to detect differential binding to either Binding Domain 1 (BD1) or Binding Domain 2 (BD2) on the bromodomain. […] Therefore in the final assay conditions, binding of the fluoroligand to the mutated domain cannot be detected and subsequently the assay is suitable to determine the binding of compounds to the single non-mutated bromodomain.
Recombinant Human Bromodomains [(BRD2 (1-473) (Y113A) and (Y386A), BRD3 (1-435) (Y73A) and (Y348A) BRD4 (1-477) (Y97A) and (Y390A) and BRDT (1-397) (Y66A) and (Y309A)] were expressed in E coli cells (in pET15b vector for BRD2/3/4 and in pET28a vector for BRDT) with a 6-His tag at the N-terminal. The His-tagged Bromodomain pellet was resuspended in 50 mM HEPES (pH7.5), 300 mM NaCl, 10 mM imidazole & 1 μl/ml protease inhibitor cocktail and extracted from the E coli cells using sonication and purified using a nickel sepharose high performance column, the proteins were washed and then eluted with a linear gradient of 0-500 mM imidazole with buffer 50 mM HEPES (pH7.5), 150 mM NaCl, 500 mM imidazole, over 20 column volumes. Final purification was completed by Superdex 200 prep grade size exclusion column. Purified protein was stored at −80° C. in 20 mM HEPES pH 7.5 and 100 mM NaCl.
All assay components were dissolved in buffer composition of 50 mM HEPES pH7.4, 50 mM NaCl, 5% Glycerol, 1 mM DTT and 1 mM CHAPS. The final concentration of bromodomain proteins were 10 nM and the Alexa Fluor647 ligand was at Kd. These components were premixed and 5 μl of this reaction mixture was added to all wells containing 50 nl of various concentrations of test compound or DMSO vehicle (0.5% DMSO final) in Greiner 384 well black low volume microtitre plates and incubated in dark for 30 minutes at rt. […] of detection mixture containing 1.5 nM final concentration anti-6His Europium chelate was added to all wells and a further dark incubation of at least 30 minutes was performed. Plates were then read on the Envision plate reader, (⋅ex=317 nm, donor ⋅em=615 nm; acceptor ⋅em=665 nm; Dichroic LANCE dual). Time resolved fluorescent intensity measurements were made at both emission wavelengths and the ratio of acceptor/donor was calculated and used for data analysis. All data was normalized to the mean of 16 high (inhibitor control—Example 11 of WO 2011/054846A1) and 16 low (DMSO) control wells on each plate. A four parameter curve fit of the following form was then applied: y=a+((b−a)/(1+(10^x/10^c)^d) Where ‘a’ is the minimum, […], ‘c’ is the pIC50 and […].

rate of hydrolysis (specific activity of CES1 against test compound) [1]	IC50 [2]	SMILES
no detectable level of hydrolysis	–	Cc1cc(-c2nc3cc(CN[C@H](C(=O)OCC(C)C)[C@@H](C)O)ccc3n2C[C@H]2CN(C)CCO2)cn(C)c1=O (single isomer, unassigned) [Example 162a]
no detectable level of hydrolysis	–	Cc1cc(-c2nc3cc(CN[C@H](C(=O)OC4CCCC4)C(C)C)ccc3n2CC2CCOCC2)c[nH]c1=O [Example 16, (S)-cyclopentyl 3-methyl-2-(((2-(5-methyl-6-oxo-1,6-dihydropyridin-3-yl)-1-((tetrahydro-2H-pyran-4-yl)methyl)-1-benzo[d]imidazol-5-yl)methyl)amino)butanoate]
–	> 50.1 µM	Cc1cc(-c2nc3cc(CN[C@@H](CC(C)C)C(=O)O)ccc3n2CCCO)c[nH]c1=O [Example 21, (S)-2-(((1-(3-hydroxypropyl)-2-(5-methyl-6-oxo-1,6-dihydropyridin-3-yl)-1H-benzo[d]imidazol-5-yl)methyl)amino)-4-methylpentanoic acid, hydrochloride]
–	> 50.1 µM	Cc1cc(-c2nc3cc(CN[C@@H](CC(C)C)C(=O)O)ccc3n2C)c[nH]c1=O [Example 24, (S)-4-methyl-2-(((1-methyl-2-(5-methyl-6-oxo-1,6-dihydropyridin-3-yl)-1H-benzo[d]imidazol-5-yl)methyl)amino)pentanoic acid, hydrochloride]
–	> 50.1 µM	Cc1cc(-c2nc3cc(CN[C@@H](CC(C)C)C(=O)O)ccc3n2CC2CCN(C)CC2)c[nH]c1=O [Example 48, (S)-4-methyl-2-(((2-(5-methyl-6-oxo-1,6-dihydropyridin-3-yl)-1-((1-methylpiperidin-4-yl)methyl)-1H-benzo[d]imidazol-5-yl)methyl)amino)pentanoic acid, bis hydrochloride]
–	> 50.1 µM	Cc1cc(-c2nc3cc(CN[C@@H](CC(C)C)C(=O)O)ccc3n2C2CCN(C)CC2)c[nH]c1=O [Example 60, (S)-4-methyl-2-(((2-(5-methyl-6-oxo-1,6-dihydropyridin-3-yl)-1-(1-methylpiperidin-4-yl)-1H-benzo[d]imidazol-5-yl)methyl)amino)pentanoic acid, bis-hydrochloride]
no detectable level of hydrolysis	–	Cc1cc(-c2nc3cc(CN[C@H](C(=O)OC4CCCC4)[C@@H](C)O)ccc3n2CC2CCOCC2)c[nH]c1=O [Example 138, (2S,3R)-cyclopentyl 3-hydroxy-2-(((2-(5-methyl-6-oxo-1,6-dihydropyridin-3-yl)-1-((tetrahydro-2H-pyran-4-yl)methyl)-1H-benzo[d]imidazol-5-yl)methyl)amino)butanoate]
no detectable level of hydrolysis	–	Cc1cc(-c2nc3cc(CN[C@H](C(=O)OC4CCCC4)[C@@H](C)O)ccc3n2CC2CCOCC2)cn(C)c1=O [Example 156, (2S,3R)-cyclopentyl 2-(((2-(1,5-dimethyl-6-oxo-1,6-dihydropyridin-3-yl)-1-((tetrahydro-2H-pyran-4-yl)methyl)-1H-benzo[d]imidazol-5-yl)methyl)amino)-3-hydroxybutanoate]
no detectable level of hydrolysis	–	Cc1cc(-c2nc3cc(CN[C@H](C(=O)OC(C)(C)C)[C@@H](C)O)ccc3n2CC2CCOCC2)cn(C)c1=O [Example 212, (2S,3R)-tert-butyl 2-(((2-(1,5-dimethyl-6-oxo-1,6-dihydropyridin-3-yl)-1-((tetrahydro-2H-pyran-4-yl)methyl)-1H-benzo[d]imidazol-5-yl)methyl)amino)-3-hydroxybutanoate]
no detectable level of hydrolysis	–	Cc1cc(-c2nc3cc(CN[C@H](C(=O)O[C@H]4CCOC4)[C@@H](C)O)ccc3n2CC2CCOCC2)cn(C)c1=O [Example 214]
no detectable level of hydrolysis	–	COC[C@H](C)n1c(-c2cc(C)c(=O)n(C)c2)nc2cc(CN[C@H](C(=O)O[C@H]3CCOC3)[C@@H](C)O)ccc21 [Example 216]

From US11053212B2, “Benzimidazole derivatives as bromodomain inhibitors” (GLAXOSMITHKLINE INTELLECTUAL PROPERTY DEVELOPMENT LIMITED, priority 2015, dated 2021)
